As usually defined, the IC50 is the concentration at which inhibition is half-maximal.

Here are results for 22 compounds from ChEMBL document CHEMBL1144049, “Functional assay and structure-activity relationships of new third-generation P-glycoprotein inhibitors” (Bioorg Med Chem, 2008).

Assay [1] deals with T1, ATP-dependent translocase ABCB1 (Homo sapiens, UniProt P08183). Briefly: Inhibition of human Pgp in A2780 cells after 30 mins by calcein AM assay. The format is cell-based.
The target in assay [2] is T1, ATP-dependent translocase ABCB1. Briefly: Inhibition of human Pgp in A2780 cells after 30 mins by Hoechst 33342 assay. It is filed as cell-based.
For assay [3], the target named is ATP-dependent translocase ABCB1 (Mus musculus, UniProt P06795). The experiment in a line: Inhibition of mouse Pgp in EMT6/AR1.0 cells after 1 hr by daunorubicin accumulation assay. It is filed as cell-based.
The target of assay [4] is T1, ATP-dependent translocase ABCB1.
Description: Inhibition of Pgp by daunorubicin accumulation assay

SMILES strings stand for the structures.

Chain of ATP-dependent translocase ABCB1 (Mus musculus, UniProt P06795) (P06795 whole entry): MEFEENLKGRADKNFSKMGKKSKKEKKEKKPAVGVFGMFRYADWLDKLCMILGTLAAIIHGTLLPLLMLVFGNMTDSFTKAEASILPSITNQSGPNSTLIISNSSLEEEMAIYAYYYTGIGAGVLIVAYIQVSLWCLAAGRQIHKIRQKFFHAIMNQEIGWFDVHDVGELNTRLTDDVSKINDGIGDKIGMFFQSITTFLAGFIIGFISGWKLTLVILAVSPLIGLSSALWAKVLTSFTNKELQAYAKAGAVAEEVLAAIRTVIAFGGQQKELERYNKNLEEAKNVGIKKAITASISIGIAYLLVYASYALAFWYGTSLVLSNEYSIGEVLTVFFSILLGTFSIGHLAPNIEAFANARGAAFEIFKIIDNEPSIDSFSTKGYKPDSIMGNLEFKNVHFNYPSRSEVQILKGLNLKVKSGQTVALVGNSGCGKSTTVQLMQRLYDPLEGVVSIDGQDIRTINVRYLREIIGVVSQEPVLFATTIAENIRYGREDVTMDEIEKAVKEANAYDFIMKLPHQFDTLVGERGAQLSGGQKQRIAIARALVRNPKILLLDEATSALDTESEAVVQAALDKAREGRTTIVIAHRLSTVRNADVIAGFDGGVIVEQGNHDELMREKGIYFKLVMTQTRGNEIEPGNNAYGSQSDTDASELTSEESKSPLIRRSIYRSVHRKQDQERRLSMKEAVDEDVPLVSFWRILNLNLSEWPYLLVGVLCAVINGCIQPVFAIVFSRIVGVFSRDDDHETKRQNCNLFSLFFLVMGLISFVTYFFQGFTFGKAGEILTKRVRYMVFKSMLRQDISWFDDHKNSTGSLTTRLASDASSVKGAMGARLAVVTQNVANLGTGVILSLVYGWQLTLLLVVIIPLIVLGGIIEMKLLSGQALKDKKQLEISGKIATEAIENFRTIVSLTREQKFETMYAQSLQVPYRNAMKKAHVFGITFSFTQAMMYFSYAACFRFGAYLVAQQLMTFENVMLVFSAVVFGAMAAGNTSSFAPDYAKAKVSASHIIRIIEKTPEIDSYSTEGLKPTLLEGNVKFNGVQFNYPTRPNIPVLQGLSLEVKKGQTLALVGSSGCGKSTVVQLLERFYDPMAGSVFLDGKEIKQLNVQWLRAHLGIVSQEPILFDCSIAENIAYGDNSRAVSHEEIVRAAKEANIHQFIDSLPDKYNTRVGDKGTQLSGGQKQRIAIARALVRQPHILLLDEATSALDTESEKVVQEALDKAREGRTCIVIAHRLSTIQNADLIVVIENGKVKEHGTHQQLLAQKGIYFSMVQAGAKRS
T1 sequence (P08183 whole entry): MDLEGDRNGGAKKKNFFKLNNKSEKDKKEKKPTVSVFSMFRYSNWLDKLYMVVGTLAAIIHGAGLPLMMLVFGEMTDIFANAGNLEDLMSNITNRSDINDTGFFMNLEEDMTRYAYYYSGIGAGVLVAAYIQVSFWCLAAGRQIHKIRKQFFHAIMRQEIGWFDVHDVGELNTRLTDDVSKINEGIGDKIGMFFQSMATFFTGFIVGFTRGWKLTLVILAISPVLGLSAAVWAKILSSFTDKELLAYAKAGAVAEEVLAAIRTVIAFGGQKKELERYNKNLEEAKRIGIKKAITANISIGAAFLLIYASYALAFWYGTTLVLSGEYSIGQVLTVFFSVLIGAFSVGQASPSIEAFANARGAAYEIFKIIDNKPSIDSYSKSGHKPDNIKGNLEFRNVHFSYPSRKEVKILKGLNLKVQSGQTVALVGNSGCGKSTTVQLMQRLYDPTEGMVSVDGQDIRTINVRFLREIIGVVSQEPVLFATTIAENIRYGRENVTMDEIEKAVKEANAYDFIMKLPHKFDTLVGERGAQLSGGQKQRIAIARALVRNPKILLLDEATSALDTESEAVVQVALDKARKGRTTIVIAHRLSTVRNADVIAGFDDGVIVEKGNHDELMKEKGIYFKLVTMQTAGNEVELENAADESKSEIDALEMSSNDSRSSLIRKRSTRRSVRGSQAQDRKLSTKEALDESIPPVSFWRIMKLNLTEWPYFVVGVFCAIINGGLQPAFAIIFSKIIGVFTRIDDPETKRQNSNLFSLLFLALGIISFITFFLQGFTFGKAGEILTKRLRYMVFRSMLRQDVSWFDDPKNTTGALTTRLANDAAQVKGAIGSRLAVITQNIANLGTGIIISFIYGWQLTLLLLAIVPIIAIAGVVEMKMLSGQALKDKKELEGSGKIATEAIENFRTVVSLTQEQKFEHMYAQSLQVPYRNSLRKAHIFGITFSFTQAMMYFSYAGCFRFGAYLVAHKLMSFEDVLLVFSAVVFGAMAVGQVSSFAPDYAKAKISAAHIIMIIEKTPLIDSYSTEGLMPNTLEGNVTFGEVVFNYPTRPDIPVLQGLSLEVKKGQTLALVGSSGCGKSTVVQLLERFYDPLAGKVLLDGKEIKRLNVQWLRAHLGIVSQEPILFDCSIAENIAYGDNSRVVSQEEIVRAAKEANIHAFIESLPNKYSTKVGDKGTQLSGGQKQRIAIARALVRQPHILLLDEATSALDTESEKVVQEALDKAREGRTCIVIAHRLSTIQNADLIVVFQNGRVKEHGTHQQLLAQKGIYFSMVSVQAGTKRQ

Take `COc1cc2c(cc1OC)CN(CCc1ccc(NC(=O)c3ccc4ncccc4c3)cc1)CC2`: the results for the IC50 in assay [1] and in assay [2] were 0.724 µM and 0.741 µM, respectively.
In the case of `COc1cc2c(cc1OC)CN(CCc1ccc(NC(=O)c3cnc4ccccc4c3)cc1)CC2`, the IC50 is 0.646 µM in assay [1] and 0.145 µM in assay [2].
On the same counts, the results for `O=C(Nc1ccc(CCN2CCc3ccccc3C2)cc1)c1ccccc1[N+](=O)[O-]` are 12.3 µM and 13.5 µM.
Consider `COc1cc2c(cc1OC)CN(CCc1ccc(NC(=O)c3ccccc3NC(=O)c3ccccc3)cc1)CC2`, for which the half-inhibitory concentration (IC50) in assay [3] is 0.3 µM; in assay [1] it was 0.724 µM; in assay [4] it was 0.25 µM.
As to `COc1cc2c(cc1OC)CN(CCc1ccc(NC(=O)c3ccnc4ccccc34)cc1)CC2`, the IC50 in assay [1] was 2.82 µM; in assay [2], 2.24 µM.
As to `COc1cc2c(cc1OC)CN(CCc1ccc(NC(=O)c3cccnc3)cc1)CC2`, the IC50 in assay [1] is 4.17 µM; in assay [2], 3.16 µM.
`O=C(Nc1ccc(CCN2CCc3ccccc3C2)cc1)c1ccc([N+](=O)[O-])cc1`: the IC50 was 4.47 µM in assay [1] and 5.01 µM in assay [2].
Turning to `COc1cc2c(cc1OC)CN(CCc1ccc(NC(=O)c3cnc4ccccc4n3)cc1)CC2`, the IC50 in assay [1] was 0.49 µM; in assay [2] it was 0.209 µM.
As for `COc1cc2c(cc1OC)CN(CCc1ccc(NC(=O)c3cccc(Br)c3)cc1)CC2`, the IC50 in assay [1] was 2.29 µM; in assay [2], 3.24 µM.
The matching figures for `COc1cc2c(cc1OC)CN(CCc1ccc(NC(=O)c3ccccc3[N+](=O)[O-])cc1)CC2`: 4.79 µM and 5.5 µM.
On to `O=C(Nc1ccccc1C(=O)Nc1ccc(CCN2CCc3ccccc3C2)cc1)c1cnc2ccccc2c1`, for which the values for the IC50 in assay [3] and in assay [1] were 0.32 µM and 0.447 µM, respectively.
For the compound `COc1cc2c(cc1OC)CN(CCc1ccc(NC(=O)c3ccccc3NC(=O)c3ccc(C)cc3)cc1)CC2`, the values for the IC50 in assay [3], in assay [1] and in assay [2] were 0.26 µM, 0.692 µM and 0.525 µM, respectively.
`COc1cc2c(cc1OC)CN(CCc1ccc(NC(=O)c3cc(OC)c(OC)cc3NC(=O)c3cnc4ccccc4c3)cc1)CC2`: the IC50 in assay [3] was 0.064 µM; in assay [2], 0.126 µM; in assay [4], 0.038 µM.
As to `COc1cc2c(cc1OC)CN(CCc1ccc(NC(=O)c3ccc([N+](=O)[O-])cc3)cc1)CC2`, the IC50 was 1.1 µM in assay [1] and 1.38 µM in assay [2].
As to `COc1cc2c(cc1OC)CN(CCc1ccc(NC(=O)c3ccc4ccccc4c3)cc1)CC2`, the IC50 in assay [1] and in assay [2] was 0.776 µM throughout.
With `COc1cc2c(cc1OC)CN(CCc1ccc(NC(=O)c3ccccc3NC(=O)c3cnc4ccccc4c3)cc1)CC2`, the 50% inhibitory concentration (IC50) in assay [3] was 0.05 µM; in assay [1] it was 0.24 µM; in assay [2] it was 0.166 µM; in assay [4], 0.087 µM.
As to `COc1cc2c(cc1OC)CN(CCc1ccc(NC(=O)c3ccccc3N)cc1)CC2`, the IC50 in assay [1] is 9.12 µM; in assay [2] it was 11.2 µM.
The matching figures for `COc1cc2c(cc1OC)CN(CCc1ccc(NC(=O)c3ccccc3Br)cc1)CC2`: 4.27 µM and 3.47 µM.
The matching figures for `COc1cc2c(cc1OC)CN(CCc1ccc(NC(=O)c3ccc(N)cc3)cc1)CC2`: 4.07 µM and 7.08 µM.
As to `Nc1ccc(C(=O)Nc2ccc(CCN3CCc4ccccc4C3)cc2)cc1`, the IC50 is 13.5 µM in assay [1] and 4.17 µM in assay [2].
For the compound `COc1cc2c(cc1OC)CN(CCc1ccc(NC(=O)c3cc4ccccc4cn3)cc1)CC2`, the IC50 in assay [1] is 0.851 µM; in assay [2] it was 0.776 µM.
`COc1cc2c(cc1OC)CN(CCc1ccc(NC(=O)c3cccc4ccccc34)cc1)CC2`: the IC50 in assay [1] was 1.41 µM; in assay [2], 1.86 µM.
